Values of other authors, collected in patent US20220079967A1, “COMPOSITION FOR IMPROVING VASCULAR ENDOTHELIAL FUNCTION” (SAN-EI GEN F.F.I., INC., priority 2019, published 2022).

Tested on: endothelial function and blood pressure
Conditions: administered to human, also with increased dosage (Bondonno et al. 2016)

SMILES: O=c1c(O[C@@H]2O[C@H](CO)[C@@H](O)[C@H](O)[C@H]2O)c(-c2ccc(O)c(O)c2)oc2cc(O)cc(O)c12 [isoquercitrin]
- effect on FMD value: does not affect
- effect on blood pressure: does not affect
